In PMC2704374, “A Multidrug ABC Transporter with a Taste for Salt” (PLoS ONE, 2009):

Target: T1, LmrCD (Lactococcus cremoris, UniProt A2RI37+A2RI38)
T1 construct: gene lmrC
Assay: malachite green ATPase assay
Type: biochemical
Conditions: 2 mM Mg-ATP; 0.05% DDM

T1 sequence (A2RI38 entry or part of it): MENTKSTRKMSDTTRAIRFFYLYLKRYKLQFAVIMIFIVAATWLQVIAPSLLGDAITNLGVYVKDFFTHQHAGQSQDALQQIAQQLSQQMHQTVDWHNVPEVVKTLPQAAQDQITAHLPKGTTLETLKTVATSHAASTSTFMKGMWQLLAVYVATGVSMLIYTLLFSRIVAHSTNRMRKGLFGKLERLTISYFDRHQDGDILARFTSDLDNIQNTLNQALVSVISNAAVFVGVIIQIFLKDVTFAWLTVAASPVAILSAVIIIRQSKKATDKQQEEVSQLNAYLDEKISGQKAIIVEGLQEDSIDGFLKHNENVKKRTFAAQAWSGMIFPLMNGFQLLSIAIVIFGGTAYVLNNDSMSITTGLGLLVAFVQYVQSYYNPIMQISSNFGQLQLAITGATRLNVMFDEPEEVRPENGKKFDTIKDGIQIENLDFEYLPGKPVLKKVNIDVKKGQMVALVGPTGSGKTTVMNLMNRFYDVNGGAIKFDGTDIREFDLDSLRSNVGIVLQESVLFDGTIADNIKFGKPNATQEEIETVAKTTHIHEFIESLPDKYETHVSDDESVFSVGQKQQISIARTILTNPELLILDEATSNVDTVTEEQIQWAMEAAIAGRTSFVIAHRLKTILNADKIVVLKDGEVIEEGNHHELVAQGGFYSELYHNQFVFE
T1 sequence (A2RI37 entry or part of it): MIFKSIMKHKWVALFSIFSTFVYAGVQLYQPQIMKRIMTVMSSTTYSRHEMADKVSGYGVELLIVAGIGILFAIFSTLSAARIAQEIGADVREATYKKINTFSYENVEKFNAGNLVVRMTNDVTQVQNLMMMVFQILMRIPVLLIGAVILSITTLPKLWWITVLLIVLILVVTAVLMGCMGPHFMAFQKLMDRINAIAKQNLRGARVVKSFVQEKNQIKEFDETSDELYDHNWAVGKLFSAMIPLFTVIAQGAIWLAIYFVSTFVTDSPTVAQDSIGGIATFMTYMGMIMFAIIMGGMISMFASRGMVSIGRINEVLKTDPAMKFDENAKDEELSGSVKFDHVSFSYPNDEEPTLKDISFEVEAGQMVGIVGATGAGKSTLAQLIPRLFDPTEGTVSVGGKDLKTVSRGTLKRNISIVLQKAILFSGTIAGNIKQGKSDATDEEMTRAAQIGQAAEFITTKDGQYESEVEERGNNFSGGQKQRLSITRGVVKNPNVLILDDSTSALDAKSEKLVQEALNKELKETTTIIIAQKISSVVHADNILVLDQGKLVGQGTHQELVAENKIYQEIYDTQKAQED

`Nc1ncnc2c1ncn2[C@@H]1O[C@H](COP(=O)(O)OP(=O)(O)OP(=O)(O)O)[C@@H](O)[C@H]1O` [ATP] was tested, and the “malachite green ATPase assay” value was “the ATPase activity of the purified multidrug ABC transporter LmrCD from L. lactis”.
